Tests used:
[1] = system: DNA end-joining reaction in the nuclear extracts of Hep2 cells; assay: DNA end-joining assay in Hep2 nuclear extract; assay type: biochemical, human; conditions: for ligation of DNA fragments in cell-free assay: 2 h incubation with various Dbait
Description: DNA end-joining was monitored by incubating ^32P-labeled 605-bp linear DNA fragments with Hep2 nuclear extract in the presence of various Dbait molecules. Ligation products migrate as dimers, trimers or tetramers, starting 605 bp monomer.
Approximately 16% of the ^32P-labeled blunt linear duplex DNA molecules were ligated into dimers and trimers during the first 2 h of incubation. The amount of high molecular weight ligation products increased up to 30% of the total input DNA after 16 h. […] In most experiments, Dbait32H (SEQ ID NO: 1) was added simultaneously with the labeled DNA fragments to the nuclear extract.
Various Dbait molecules were tested for their effect on the cell-free assay by adding the molecules to nuclear extract and incubating for 2 h with the DNA fragments.
DNA-PK activity was monitored using the kit SignaTECT DNA-dependent Protein Kinase Assay System (Promega, Madison, USA). Increasing amounts of Hep2 nuclear extract (cleaned of endogenous DNA by DEAE-Sepharose filtration) were assayed in the presence of 250 nM Dbait. Extract, biotinylated peptide substrate and various amount of nuclear extract were incubated 5 minutes at 30° C. with (γ-^32P)ATP according to manufacturer indications. The biotinylated substrate was capture on streptavidine membrane, washed and counted in a scintillation counter. Percentage of phosphorylation is calculated by dividing the bound radioactivity by the total count of (γ-^32P)ATP per sample. Reactions (10 μl) were carried out in 60 mM KOAc, 100 μg/ml BSA, 0.5 mM Mg(Cl)2, 1 μl T4 DNA ligase 10× buffer (Promega, Madison, USA). Nuclear extract and Dbait were incubated 2 minutes before addition of ^32P-labeled DNA (10 ng). Samples were incubated various time at 37° C. before ligation being stopped by 20 mM EDTA and 1 mg/ml Proteinase K addition. Ligation products were analyzed by electrophoresis through 0.7% agarose gels followed by autoradiography and quantification by phosphorimaging.

GMA32 cells = assay: FACS analysis of sub-G1 cells (cell death) in GMA32 cells; assay type: cell-based, Chinese hamster; conditions: GMA32, 4.5 μg Dbait with lipofectamine, no irradiation or mitotic inhibitor
Description: The GMA32 Chinese hamster fibroblast cells permissive of DNA breaks were maintained in MEM medium (Gibco) supplemented with 1 mM sodium pyruvate, 2 mM glutamine, 1×MEM non essential amino acids, 1× penicillin/streptomycin and 10% horse serum. Typically, 2×10^5 to 4×10^5 cells were seeded in medium without antibiotics, in 5 cm diameter Petri dishes 24 hours before the transfection of different Dbait molecules (4.5 μg) with lipofectamine 2000 (LifeTechnologies) as transfection agent (in a 1:3 ratio), according to the manufacturer's instructions. At the end of the transfection the cells were either irradiated (4 Gy) or treated with mitotic inhibitors: nocodazole (200 nM), navelbine (100 nM) or taxol (200 nM).
About 16 hour later the drug was removed and the cells were allowed to recover. Cell irradiation was performed with γ-rays from a ^137Cs source. After a 24 hours recovery, the cells were collected and used either for FACS, western blot analyses or to determine the clonogenicity (survival) and the effect of each treatment.
The M1 phase represents the percentage of cells in sub-G1 stage indicative of cell death.
The experiments were performed with a FACS calibur flow cytometer (Becton Dickinson). Cells were collected, suspended in 1 ml of cold GM buffer (6.5 mM glucose, 137 mM NaCl, 5.4 mM KCl, 2 mM Na2HPO4, 1 mM KHPO4, 0.5 mM EDTA), and stored at 4° C. for at least 2 hours after addition of 3 ml of cold 100% ethanol.
At that stage, cells were eventually washed with 1×PBS, then stained for 30 minutes at room temperature in PI solution (50 μg/ml propidium iodide, 25 μg/ml RNase A in 1×PBS buffer). 10,000 events were analyzed with Cellquest software, and cell aggregates were gated out. The percentage of cells with a sub-G1 content of DNA was scored.

[2] = system: p53 serine 15 phosphorylation in GMA32 cells; assay: Western blot of p53 serine 15 phosphorylation in GMA32 cells; assay type: cell-based, Chinese hamster; conditions: GMA32, Dbait with lipofectamine, no irradiation or mitotic inhibitor
Description: Further experiment was carried out in order to look for evidence of DNA damage signaling. The protein p53 is a well known major protein in mediating DNA damage signaling and in coordinating appropriate responses (DNA repair, apoptosis, etc.) by changing its phosphorylation status. In particular, the phosphorylation of serine 15 residue is involved in the interaction with MDM2 protein which acts as a feed back control Thus, the phosphorylation status of the serine 15 of p53 was assessed by Western blot.
For Western blot analysis, cells were lysed in Laemmli buffer. Equal amounts of lysates were resolved in 12% polyacrylamide gels. Proteins were transferred to nitrocellulose membranes, which were blocked with 5% nonfat milk (1 hour) before overnight incubation with anti-p53Ser15 antibody (9284, Cell Signaling) diluted 500 folds in TBST buffer (10 mM Tris-HCl pH7.5, 150 mM NaCl, 0.1% Tween 20) containing 5% nonfat milk. Blots were then incubated with horseradish peroxidase-conjugated goat anti-rabbit IgG secondary antibodies (P0448, Dako) diluted 1/5000 in TBST. Protein-antibody complexes were detected by enhanced chemiluminescence (RPN2106 ECL, Amersham).

Ku complex = biological target: T1, Ku complex (Homo sapiens, UniProt P12956+P13010); assay: Band-shift assay with Hep2 nuclear protein extracts; assay type: binding; conditions: for retarded bands in band-shift assay: 10 nM 32P radio-labelled Dbait, 0-320 ng/μL Hep2 nuclear proteins, 30° C., 10 minutes; for binding of Ku: Hep2 nuclear extract, band-shift
T1 construct: in the presence of nuclear protein extracts from Hep2 cells according to standard protocol; endogenous in cells; host or cells: Hep2 cells (nuclear protein extract)
T1 sequence (P12956 whole entry): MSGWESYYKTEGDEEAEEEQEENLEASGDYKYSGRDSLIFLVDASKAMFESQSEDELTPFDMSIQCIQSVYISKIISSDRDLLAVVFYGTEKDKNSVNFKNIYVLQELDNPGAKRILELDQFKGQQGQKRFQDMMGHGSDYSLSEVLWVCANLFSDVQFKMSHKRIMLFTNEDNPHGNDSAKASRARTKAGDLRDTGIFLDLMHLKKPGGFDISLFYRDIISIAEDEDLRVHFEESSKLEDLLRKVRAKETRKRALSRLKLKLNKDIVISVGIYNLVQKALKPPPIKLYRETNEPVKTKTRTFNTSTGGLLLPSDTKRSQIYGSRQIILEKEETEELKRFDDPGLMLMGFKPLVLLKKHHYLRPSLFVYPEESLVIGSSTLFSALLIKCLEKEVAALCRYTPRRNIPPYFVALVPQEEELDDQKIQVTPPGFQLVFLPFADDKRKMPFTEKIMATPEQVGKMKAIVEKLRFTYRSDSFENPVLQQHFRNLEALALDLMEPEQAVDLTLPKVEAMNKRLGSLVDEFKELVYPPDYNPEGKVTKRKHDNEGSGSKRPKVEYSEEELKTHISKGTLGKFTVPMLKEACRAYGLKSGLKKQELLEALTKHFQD
T1 sequence (P13010 whole entry): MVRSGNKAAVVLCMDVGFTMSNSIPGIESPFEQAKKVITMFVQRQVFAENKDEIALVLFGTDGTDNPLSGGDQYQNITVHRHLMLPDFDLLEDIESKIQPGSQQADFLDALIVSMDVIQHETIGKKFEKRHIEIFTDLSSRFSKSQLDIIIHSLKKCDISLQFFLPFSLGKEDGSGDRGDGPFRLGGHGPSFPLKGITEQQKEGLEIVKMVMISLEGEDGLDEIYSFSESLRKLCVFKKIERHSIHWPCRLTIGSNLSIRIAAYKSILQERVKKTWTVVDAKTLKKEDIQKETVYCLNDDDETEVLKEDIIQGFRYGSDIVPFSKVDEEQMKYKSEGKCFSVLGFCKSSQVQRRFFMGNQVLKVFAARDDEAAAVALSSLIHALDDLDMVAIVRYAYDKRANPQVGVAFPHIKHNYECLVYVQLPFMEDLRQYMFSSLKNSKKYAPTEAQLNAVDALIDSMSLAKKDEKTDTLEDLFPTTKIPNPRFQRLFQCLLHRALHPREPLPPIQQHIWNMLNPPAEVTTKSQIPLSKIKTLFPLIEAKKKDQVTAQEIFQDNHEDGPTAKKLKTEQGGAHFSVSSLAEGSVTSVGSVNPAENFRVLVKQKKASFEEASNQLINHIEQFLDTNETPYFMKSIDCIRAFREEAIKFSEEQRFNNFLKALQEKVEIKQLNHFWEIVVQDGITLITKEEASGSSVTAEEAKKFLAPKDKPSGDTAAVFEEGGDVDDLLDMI
Description: As the first step to dissect the mechanism of action of Dbait molecules, a series of band-shift assays were carried out with different ^32P radio-labelled Dbait molecules in the presence of nuclear protein extracts from Hep2 cells according to standard protocol. Typically, 10 nM ^32P radio-labelled Dbait molecules were incubated in the presence of various concentrations of nuclear proteins (0, 10, 20, 40, 80, 160, and 320 ng/μL) at 30° C. for 10 minutes in TBE buffer. Then the samples were loaded on a 5% acrylamide native gel. The electrophoresis was run at 95V for 2 hours at 4° C. The gel was dried and scanned by phosphorimager (Molecular Dynamics).
For 32-bp Dbait molecules, the intensity of the retarded band 1 increases and then decreases as the concentration of protein increases, while the intensity of the retarded band 2 increases as a function of the concentration of nuclear protein extracts.
It is likely that band 1 has one Ku70/80 complex bound to the 16 to 32-bp Dbait, whereas the band 2 has two Ku70/80 complexes bound to the 32-bp Dbait molecules. Control experiments performed with purified Ku proteins confirmed this interpretation.

Substance | ligation of DNA fragments in cell-free assay [1] | cell death (cells in sub-G1 stage) (GMA32 cells) | phosphorylation of p53 serine 15 [2] | retarded bands in band-shift assay (Ku complex) | DNA end-joining (ligation) ([1]; Dbait added 30 min after the nuclear extract (data not shown)) | DNA end-joining (ligation of 32P-labeled linear DNA fragments) ([1]; Dbait added simultaneously with fragments, 100-fold molar excess) | DNA end-joining (ligation) ([1]; Dbait incubated with the extract for 30 min before addition of fragments) | binding of Ku (Ku complex)
Dbait32ss: 32-nt single strand DNA (SEQ ID NO: 1) (DNA ACGCACGGGTGTTGGGTCGTTTGTTCGGATCT; DNA, backbone not given here) | largely unaffected | moderate | Neither the shortest Dbait8H (SEQ ID NO: 4) nor single strand Dbaut32ss (SEQ ID NO: 1) molecules were able to induced significant phosphorylation |  |  |  |  | 
Dbait32H: hairpin double strand DNA with a stem of 32-bp, hexaethyleneglycol linker, phosphorothioate at the free blunt end (DNA ACGCACGGGTGTTGGGTCGTTTGTTCGGATCT; DNA, backbone not given here; hairpin, hexaethyleneglycol loop, 3-bp phosphorothioate at free blunt end) |  | Significant cell death | highly phosphorylated | two retarded band | no inhibition of the ligation | strongly inhibited | extent of inhibition was similar | 
Dbait16H: hairpin double strand DNA with a stem of 16-bp (DNA ACGCACGGGTGTTGGG; DNA, backbone not given here; hairpin DNA with hexaethyleneglycol loop, 3-bp phosphorothioate at free blunt end) | inhibited the ligation as efficiently as Dbait32H | intermediate | moderate phosphorylation | One retarded band |  |  |  | bound only one Ku dimer
Dbait8H: hairpin double strand DNA with a stem of 8-bp (DNA ACGCACGG; DNA, backbone not given here; hairpin, hexaethyleneglycol loop, 3-bp phosphorothioate at free blunt end) | largely unaffected | failed to trigger cell death | Neither the shortest Dbait8H (SEQ ID NO: 4) nor single strand Dbaut32ss (SEQ ID NO: 1) molecules were able to induced significant phosphorylation |  |  |  |  | dID NO:t bind Ku

— patent publication US7476729B2, “Dbait and uses thereof” (Institut Curie, priority 2003, dated 2009)
